ChEMBL document CHEMBL1127074, “Novel hypotensive agents from Verbesina caracasana. 2. Synthesis and pharmacology of caracasanamide” (1993)
Several values for one entry are separate records, joined by “and”; a condition that tells them apart may be missing. Identical values can stand only once.

Experiments:
[1] = system: Rattus norvegicus; assay: Tested for the change in systolic blood pressure administered at 6400 ug/kg intravenously in anesthetized rats in presence of hexamethonium (5 mg/kg) (p<0.05); type: functional, Artery
[2] = system: Rattus norvegicus; assay: Tested for the change in diastolic blood pressure administered at 100 ug/kg intravenously in anesthetized rats; type: functional, Artery
[3] = system: Rattus norvegicus; assay: Change in heart rate administered at 3200 ug/kg iv in anesthetized rats in presence of phentolamine (2 mg/kg); type: functional
[4] = system: Rattus norvegicus; assay: Change in respiratory frequency administered at 800 ug/kg iv in anesthetized rats; type: functional
[5] = system: Rattus norvegicus; assay: Tested for the change in systolic blood pressure administered at 100 ug/kg iv in anesthetized rats in presence of spinalization under vagotomy; type: functional, Artery
[6] = system: Rattus norvegicus; assay: Change in respiratory frequency administered at 200 ug/kg iv in anesthetized rats; type: functional
[7] = system: Rattus norvegicus; assay: Change in heart rate administered at 1600 ug/kg iv in anesthetized rats in presence of propranolol (3 mg/kg) (p<0.05); type: functional
[8] = system: Rattus norvegicus; assay: Tested for the change in diastolic blood pressure administered at 400 ug/kg intravenously in anesthetized rats; type: functional, Artery
[9] = system: Rattus norvegicus; assay: Change in heart rate administered at 800 ug/kg iv in anesthetized rats in presence of phentolamine (2 mg/kg); type: functional
[10] = system: Rattus norvegicus; assay: Tested for the change in systolic blood pressure administered at 1600 ug/kg intravenously in anesthetized rats; type: functional, Artery
[11] = system: Rattus norvegicus; assay: Maximum rate of rise of the left ventricular isovolumetric pressure administered at 3200 ug/kg iv in anesthetized rats in presence of phentolamine (2 mg/kg); type: functional, Heart left ventricle
[12] = system: Rattus norvegicus; assay: Maximum rate of rise of the left ventricular isovolumetric pressure administered at 100 ug/kg iv in anesthetized rats in presence of spinalization under vagotomy; type: functional, Heart left ventricle
[13] = system: Rattus norvegicus; assay: Maximum rate of rise of the left ventricular isovolumetric pressure administered at 1600 ug/kg iv in anesthetized rats in presence of hexamethonium (5 mg/kg) (p<0.05); type: functional, Heart left ventricle
[14] = system: Rattus norvegicus; assay: Tested for the change in systolic blood pressure administered at 50 ug/kg intravenously in anesthetized rats; type: functional, Artery
[15] = system: Rattus norvegicus; assay: Maximum rate of rise of the left ventricular isovolumetric pressure administered at 800 ug/kg iv in anesthetized rats in presence of […] (3 mg/kg) (p<0.05); type: functional, Heart left ventricle
[16] = system: Rattus norvegicus; assay: Change in respiratory frequency administered at 100 ug/kg iv in anesthetized rats; type: functional
[17] = system: Rattus norvegicus; assay: Maximum rate of rise of the left ventricular isovolumetric pressure (dP/dt) administered at 6400 ug/kg iv in anesthetized rats; type: functional, Heart left ventricle
[18] = system: Rattus norvegicus; assay: Tested for the change in systolic blood pressure administered at 1600 ug/kg intravenously in anesthetized rats in presence of hexamethonium (5 mg/kg) (p<0.05); type: functional, Artery
[19] = system: Rattus norvegicus; assay: Change in heart rate administered at 100 ug/kg iv in anesthetized rats in presence of spinalization under vagotomy; type: functional
[20] = system: Rattus norvegicus; assay: Tested for the change in diastolic blood pressure administered at 800 ug/kg iv in anesthetized rats in presence of hexamethonium (5 mg/kg) (p<0.05); type: functional, Artery
[21] = system: Rattus norvegicus; assay: Tested for the change in diastolic blood pressure administered at 200 ug/kg intravenously in anesthetized rats; type: functional, Artery
[22] = system: Rattus norvegicus; assay: Tested for the change in systolic blood pressure administered at 800 ug/kg intravenously in anesthetized rats in presence of propranolol (3 mg/kg); type: functional, Artery
[23] = system: Rattus norvegicus; assay: Change in heart rate administered at 800 ug/kg iv in anesthetized rats in presence of propranolol (3 mg/kg) (p<0.05); type: functional
[24] = system: Rattus norvegicus; assay: Tested for the change in diastolic blood pressure administered at 6400 ug/kg intravenously in anesthetized rats; type: functional, Artery
[25] = system: Rattus norvegicus; assay: Change in respiratory frequency administered at 50 ug/kg iv in anesthetized rats; type: functional
[26] = system: Rattus norvegicus; assay: Tested for the change in systolic blood pressure administered at 800 ug/kg intravenously in anesthetized rats in presence of phentolamine (2 mg/kg); type: functional, Artery
[27] = system: Rattus norvegicus; assay: Maximum rate of rise of the left ventricular isovolumetric pressure administered at 4.12 uM/kg iv in anesthetized rats; type: functional, Heart left ventricle
[28] = system: Rattus norvegicus; assay: Tested for the change in systolic blood pressure administered at 3200 ug/kg intravenously in anesthetized rats in presence of propranolol (3 mg/kg); type: functional, Artery
[29] = system: Rattus norvegicus; assay: Maximum rate of rise of the left ventricular isovolumetric pressure administered at 6400 ug/kg iv in anesthetized rats in presence of hexamethonium (5 mg/kg) (p<0.05); type: functional, Heart left ventricle
[30] = system: Rattus norvegicus; assay: Tested for the change in diastolic blood pressure administered at 800 ug/kg iv in anesthetized rats in presence of phentolamine (2 mg/kg); type: functional, Artery
[31] = system: Rattus norvegicus; assay: Tested for the change in systolic blood pressure administered at 200 ug/kg intravenously in anesthetized rats; type: functional, Artery
[32] = system: Rattus norvegicus; assay: Tested for change in diastolic blood pressure administered at 4.12 uM/kg iv in anesthetized rats; type: functional, Artery
[33] = system: Rattus norvegicus; assay: Change in respiratory frequency administered at 400 ug/kg iv in anesthetized rats; type: functional
[34] = system: Rattus norvegicus; assay: Change in heart rate administered at 200 ug/kg iv in anesthetized rats in presence of spinalization under vagotomy; type: functional
[35] = system: Rattus norvegicus; assay: Tested for the change in systolic blood pressure administered at 100 ug/kg intravenously in anesthetized rats in presence of spinalization under vagotomy; type: functional, Artery
[36] = system: Rattus norvegicus; assay: Change in heart rate administered at 6400 ug/kg iv in anesthetized rats in presence of hexamethonium (5 mg/kg) (p<0.05); type: functional
[37] = system: Rattus norvegicus; assay: Maximum rate of rise of the left ventricular isovolumetric pressure administered at 200 ug/kg iv in anesthetized rats in presence of spinalization under vagotomy; type: functional, Heart left ventricle
[38] = system: Rattus norvegicus; assay: Tested for change in systolic blood pressure administered at 4.12 uM/kg iv in anesthetized rats; type: functional, Artery
[39] = system: Rattus norvegicus; assay: Change in heart rate administered at 1600 ug/kg iv in anesthetized rats in presence of hexamethonium (5 mg/kg) (p<0.05); type: functional
[40] = system: Rattus norvegicus; assay: Tested for the change in diastolic blood pressure administered at 6400 ug/kg iv in anesthetized rats in presence of propranolol (3 mg/kg); type: functional, Artery
[41] = system: Rattus norvegicus; assay: Tested for the change in systolic blood pressure administered at 3200 ug/kg intravenously in anesthetized rats in presence of phentolamine (2 mg/kg); type: functional, Artery
[42] = system: Rattus norvegicus; assay: Tested for the change in diastolic blood pressure administered at 1600 ug/kg iv in anesthetized rats in presence of hexamethonium (5 mg/kg) (p<0.05); type: functional, Artery
[43] = system: Rattus norvegicus; assay: Tested for the change in diastolic blood pressure administered at 6400 ug/kg iv in anesthetized rats in presence of hexamethonium (5 mg/kg) (p<0.05); type: functional, Artery

## COc1ccc(/C=C/C(=O)NCCCC/N=C(\N)NCC=C(C)C)cc1OC
[1]
  Blood pressure: -13 mmHg
[2]
  Blood pressure: -6 mmHg and -9%
[3]
  Heart rate: 24 beats min-1
[4]
  Frequency: 25 beats min-1 and 24%
[5]
  Blood pressure: 0 mmHg
[6]
  Frequency: 12 beats min-1 and 12%
[7]
  Heart rate: 7 beats min-1
[8]
  Blood pressure: -14 mmHg and -23%
[9]
  Heart rate: 17 beats min-1
[10]
  Blood pressure: -21 mmHg and -26%
[11]
  dp/dt: 2627 mmHg s-1
[12]
  dp/dt: 0 mmHg s-1
[13]
  dp/dt: 1008 mmHg s-1
[14]
  Blood pressure: -4 mmHg and -5%
[15]
  dp/dt: 415 mmHg s-1
[16]
  Frequency: 9 beats min-1 and 8%
[17]
  BP: 58%
  dp/dt: 3074 mmHg s-1
[18]
  Blood pressure: -8 mmHg
[19]
  Heart rate: 0 beats min-1
[20]
  Blood pressure: -6 mmHg
[21]
  Blood pressure: -10 mmHg and -16%
[22]
  Blood pressure: -18 mmHg
[23]
  Heart rate: 6 beats min-1
[24]
  Blood pressure: -31 mmHg and -48%
[25]
  Frequency: 6 beats min-1 and 6%
[26]
  Blood pressure: -22 mmHg
[27]
  dP/dtmax: 3000 mmHg/s
[28]
  Blood pressure: -30 mmHg
[29]
  dp/dt: 1447 mmHg s-1
[30]
  Blood pressure: -19 mmHg
[31]
  Blood pressure: -11 mmHg and -14%
[32]
  Blood pressure: -18 mmHg
[33]
  Frequency: 16 beats min-1 and 16%
[34]
  Heart rate: 0 beats min-1
[35]
  Blood pressure: 0 mmHg
[36]
  Heart rate: 12 beats min-1
[37]
  dp/dt: 0 mmHg s-1
[38]
  Blood pressure: -21 mmHg
[39]
  Heart rate: 10 beats min-1
[40]
  Blood pressure: -28 mmHg
[41]
  Blood pressure: -37 mmHg
[42]
  Blood pressure: -9 mmHg
[43]
  Blood pressure: -20 mmHg
